The target in this test is T1, APOL1 G1 (Homo sapiens, UniProt O14791, I384M/S342G).
T1 sequence (O14791 28-398 S342G/I384M): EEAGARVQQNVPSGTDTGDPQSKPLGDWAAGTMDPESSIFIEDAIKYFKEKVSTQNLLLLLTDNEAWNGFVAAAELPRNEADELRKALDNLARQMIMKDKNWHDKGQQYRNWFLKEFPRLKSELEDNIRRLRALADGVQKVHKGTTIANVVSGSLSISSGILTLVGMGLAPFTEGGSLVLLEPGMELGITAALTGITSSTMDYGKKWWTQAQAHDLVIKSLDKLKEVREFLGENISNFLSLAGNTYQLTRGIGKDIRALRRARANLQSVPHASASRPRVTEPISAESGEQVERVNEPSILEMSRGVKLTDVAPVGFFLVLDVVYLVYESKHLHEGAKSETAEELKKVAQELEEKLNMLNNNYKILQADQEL
The test is described as follows: MultiTox-Fluor Multiplex Cytotoxicity Assay, tet-inducible APOL1 G1 T-REx-HEK293 cells. The conditions noted are these: for IC90: read-out: Multi-Tox Assay IC90; for Emax: read-out: Multi-Tox Assay Max Activity (%). Format: cell-based. Also on record: expressed in transfected cells; host or cells: T-REx HEK293, clone G1 DC3.25 (pAAVS1-Puro-APOL1 G1). The procedure, abridged:
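Over 24 h at 37 °C, compounds (10-point 3-fold series from 10 µM, duplicate) were co-incubated with 50 ng/mL tetracycline inducing APOL1 G1 in T-REx-HEK293 cells. Viability/cytotoxicity measured by MultiTox-Fluor as dead-to-live fluorescence ratio, expressed as percent of control between uninduced and induced wells and fitted.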

[1] abbreviates: HEK293, Multi-Tox Assay, APOL1 variant (G0/G1/G2) of the HEK293 cells not given.
Where [2] appears, read: Multi-Tox Assay, APOL1 variant not given.
Setting [3] is: Multi-Tox Assay, APOL1 variant (G0/G1/G2) not stated in Table 46.
The mark [4] stands for this setting: Multi-Tox Assay, APOL1 variant not stated in Table 46.

By IC90 is commonly meant the point of the concentration-response curve where the effect stands at 90%.

The structures appear in SMILES notation. Read-outs that look alike come from different tables or passages of the source. A value given as a limit tells only on which side of the number the result lay.

Consider `C[C@H]1C[C@@]2(C[C@@H](c3cn(CC4CCOCC4)nn3)N1)OCC(F)(F)c1cc(Cl)sc12` [Compound 309], for which the IC90 under setting [1] fell in the range of 50 to 500 nM. Moreover, the “Multi-Tox Assay Max Activity (%)” value under setting [2] stood at 97.0%.

As for `COCCOCCn1cc([C@@H]2C[C@]3(C[C@H](C)N2)OCC(F)(F)c2cc(Cl)sc23)nn1` [Compound 340], under setting [1], the IC90 lay in the range of 50 to 500 nM. The “Multi-Tox Assay Max Activity (%)” value under setting [2] is reported as 98.0%.

With `Cn1cc(C2CC3(CC(C(F)F)N2)OCCc2cc(C(F)(F)F)sc23)nn1` (stereo not drawn) [Compound 389, 2'-(difluoromethyl)-6'-(1-methyltriazol-4-yl)-2-(trifluoromethyl)spiro[4,5-dihydrothieno[2,3-c]pyran-7,4'-piperidine]], under setting [3], the IC90 is greater than 500 nM. Further, under setting [4], the Emax is 99%. Regarding `C[C@H]1C[C@@]2(C[C@@H](c3cn(Cc4cccc(O)c4)nn3)N1)OCC(F)(F)c1cc(Cl)sc12` [Compound 320], under setting [1], the IC90 was greater than 500 nM. For the same compound, the “Multi-Tox Assay Max Activity (%)” value under setting [2] came to 95.0%.

With `C[C@H]1C[C@@]2(C[C@@H](c3cc4n(n3)CCCO4)N1)OCCc1cc(Cl)sc12` (racemic) [Compound 131], under setting [1], the IC90 lay in the range of 50 to 500 nM. Also, the “Multi-Tox Assay Max Activity (%)” value under setting [2] turned out to be 99.3%. Turning to `C[C@H]1C[C@@]2(C[C@@H](c3ccc(O)nc3)N1)OCCc1cc(Cl)sc12` (racemic) [Compound 68], the IC90 under setting [1] was less than 50 nM. The Emax under setting [2] stood at 99.7%. Consider `COCC(O)Cn1cc([C@@H]2C[C@]3(C[C@H](C)N2)OCC(F)(F)c2cc(Cl)sc23)nn1` (stereo partly drawn) [Compound 342], for which the IC90 under setting [1] fell in the range of 50 to 500 nM. Besides, the “Multi-Tox Assay Max Activity (%)” value under setting [2] was 98.0%. The matching figures for `C[C@H]1C[C@@]2(C[C@@H](c3cn(CCC(N)=O)nn3)N1)OC[C@@H](O)c1cc(Cl)sc12` [Compound 288]: 50 to 500 nM and 97.0%. As to `C[C@H]1C[C@@]2(C[C@@H](c3ccc(=O)n(C)c3)N1)OCCc1cc(Cl)sc12` (racemic) [Compound 80], the concentration for an effect of 90% (IC90) under setting [1] was less than 50 nM. Also, under setting [2], the Emax came to 99.7%. The matching figures for `C#C[C@@H]1C[C@]2(C[C@H](C)N1)OC[C@@H](O)c1cc(Cl)sc12` [Compound 222, (2'S,4S,6'S,7S)-2-chloro-2'-ethynyl-6'-methyl-spiro[4,5-dihydrothieno[2,3-c]pyran-7,4'-piperidine]-4-ol]: 50 to 500 nM and 100%. With `CCc1c[nH]c([C@@H]2C[C@]3(C[C@H](C)N2)OCCc2cc(Cl)sc23)n1` (racemic) [Compound 153], under setting [1], the IC90 is greater than 500 nM. The “Multi-Tox Assay Max Activity (%)” value under setting [2] is listed as 96.0%. Turning to `CC1CC2(CC(C3CC3(F)F)N1)OCCc1cc(Cl)sc12` (single isomer, unassigned) [Compound 212], the IC90 under setting [1] was less than 50 nM. In addition, under setting [2], the Emax was found to be 99%. The matching figures for `C[C@H]1C[C@@]2(C[C@@H](c3ccc(C(=O)NC4CC4)cc3)N1)OCCc1cc(Cl)sc12` (racemic) [Compound 71]: less than 50 nM and 100%.

As to `C[C@H]1CC2(C[C@@H](c3cn(C)nn3)N1)OCC(C)(C)c1sc(C(F)(F)F)cc12` (single isomer, unassigned) [Compound 16], the IC90 under setting [1] was 50 to 500 nM. Also, the “Multi-Tox Assay Max Activity (%)” value under setting [2] was 100.0%. For the compound `CC(CO)CCn1cc([C@@H]2C[C@]3(C[C@H](C)N2)OCC(F)(F)c2cc(Cl)sc23)nn1` (stereo partly drawn) [Compound 306], the IC90 under setting [1] is greater than 500 nM. For `Cc1cncc([C@@H]2C[C@]3(C[C@H](C)N2)OCCc2cc(Cl)sc23)c1` (racemic) [Compound 64], under setting [1], the IC90 was less than 50 nM. Under setting [2], the Emax amounted to 100%. Take `Cc1ccccc1C(O)Cn1cc([C@@H]2C[C@]3(C[C@H](C)N2)OC[C@@H](O)c2cc(Cl)sc23)nn1` (stereo partly drawn) [Compound 261]: the IC90 under setting [1] was 50 to 500 nM. Moreover, the “Multi-Tox Assay Max Activity (%)” value under setting [2] is 100.0%.

On to `C[C@H]1C[C@@]2(C[C@@H](c3cn(C)nn3)N1)OC[C@@H](O)c1cc(Cl)sc12` [Compound 174, (2'S, 4S, 6'S, 7S)-2-chloro-2'-methyl-6'-(1-methyltriazol-4-yl)spiro[4,5-dihydrothieno[2,3-c]pyran-7,4'-piperidine]-4-ol], for which the IC90 under setting [1] is less than 50 nM. The Emax under setting [2] was 99.8%. For the compound `C[C@H]1C[C@@]2(C[C@@H](c3cccc4cn[nH]c34)N1)OCCc1cc(Cl)sc12` (racemic) [Compound 168], the IC90 under setting [1] was greater than 500 nM. In addition, the “Multi-Tox Assay Max Activity (%)” value under setting [2] amounted to 89.0%. On to `C[C@H]1C[C@@]2(C[C@@H](c3cn(CC4CCS(=O)(=O)C4)nn3)N1)OCC(F)(F)c1cc(Cl)sc12` (stereo partly drawn) [Compound 307], for which the IC90 under setting [1] fell in the range of 50 to 500 nM. As for `C[C@@H]1CC2(C[C@H](C)N1)OCCc1cc(C3CCCCC3)sc12` (single isomer, unassigned) [Compound 202], the IC90 under setting [1] is greater than 500 nM. Moreover, the Emax under setting [2] was determined as 94.7%. For `Cc1ncc(Cn2cc([C@@H]3C[C@]4(C[C@H](C)N3)OC[C@@H](O)c3cc(Cl)sc34)nn2)cn1` [Compound 277], the IC90 under setting [1] lay within 50 to 500 nM. The “Multi-Tox Assay Max Activity (%)” value under setting [2] turned out to be 100.0%.

For `CC(C)c1cc2c(s1)C1(C[C@@H](C)N[C@@H](C)C1)OCC2` (single isomer, unassigned) [Compound 200], under setting [1], the IC90 is greater than 500 nM. Under setting [2], the Emax was 97%. In the case of `C[C@@H]1CC2(C[C@H](C)N1)OCCc1cc(Br)sc12` (single isomer, unassigned) [Compound 197], the IC90 under setting [1] is 50 to 500 nM. For the same compound, the Emax under setting [2] came to 99%. In the case of `C[C@H]1C[C@@]2(C[C@@H](C3(N)CC3)N1)OCCc1cc(Cl)sc12` [Compound 373, 1-[(2'S,6'S,7S)-2-chloro-6'-methyl-spiro[4,5-dihydrothieno[2,3-c]pyran-7,4'-piperidine]-2'-yl]cyclopropanamine], the 90% effect concentration (IC90) under setting [3] lay within 50 to 500 nM.

For `C[C@H]1C[C@@]2(C[C@@H](c3cn(C[C@@H](O)CO)nn3)N1)OC[C@@H](O)c1cc(Cl)sc12` [Compound 246], the IC90 under setting [1] lay in the range of 50 to 500 nM. Also, the “Multi-Tox Assay Max Activity (%)” value under setting [2] came out at 97.0%.

For the compound `COc1ccc(Cn2cc([C@@H]3C[C@]4(C[C@H](C)N3)OCC(F)(F)c3cc(Cl)sc34)nn2)cc1` [Compound 335], under setting [1], the IC90 was greater than 500 nM. Further, the “Multi-Tox Assay Max Activity (%)” value under setting [2] is 96.0%.

As to `C[C@@H]1CC2(C[C@H](C)N1)OCCc1cc(CC(F)F)sc12` (single isomer, unassigned) [Compound 203], the IC90 under setting [1] is less than 50 nM. Besides, under setting [2], the Emax is 99.3%. `C[C@H]1C[C@@]2(C[C@@H](c3cn(Cc4cocn4)nn3)N1)OC[C@@H](O)c1cc(Cl)sc12` [Compound 291]: under setting [1], the IC90 fell in the range of 50 to 500 nM. The “Multi-Tox Assay Max Activity (%)” value under setting [2] was found to be 100.0%. In the case of `COC(=O)C1([C@@H]2C[C@]3(C[C@H](C)N2)OCCc2cc(Cl)sc23)CC1` [Compound 372, methyl 1-[(2'S,6'S,7S)-2-chloro-6'-methyl-spiro[4,5-dihydrothieno[2,3-c]pyran-7,4'-piperidine]-2'-yl]cyclopropanecarboxylate], the IC90 under setting [3] was greater than 500 nM. Moreover, the “Multi-Tox Assay Max Activity (%)” value under setting [4] was 92.0%.

With `C[C@H]1C[C@@]2(C[C@@H](c3cn(CC(O)c4ccccc4)nn3)N1)OC[C@@H](O)c1cc(Cl)sc12` (stereo partly drawn) [Compound 281], the IC90 under setting [1] was 50 to 500 nM.

Take `CC1CC2(CC(c3cccc(C#N)c3)N1)OCCc1cc(Cl)sc12` (stereo not drawn) [Compound 24]: the 90% effect concentration (IC90) under setting [1] was less than 50 nM. Under setting [2], the “Multi-Tox Assay Max Activity (%)” value is 100.0%.

These data come from patent EP4810040A2, “INHIBITORS OF APOL1 AND METHODS OF USING SAME” (priority 2020, dated 2022).
